We go through four compounds from ChEMBL document CHEMBL1157256, “Junceellolides J-L, 11,20-epoxybriaranes from the gorgonian coral Junceella fragilis” (2006).

One may read the inhibition as the drop in the measured response relative to a control, in per cent.

One test has as its system Neutrophil. In words: Inhibition of FMLP/cytochalasin B-stimulated elastase release in human neutrophils at 10 ug/mL relative to control. In kind it is functional.
Test [1] in a line: Antioxidant activity in human neutrophils assessed as inhibition of superoxide generation at 10 ug/mL by colorimetric method relative to control. In kind it is functional. To be noted: Neutrophil.

For the compound `CC(=O)O[C@H]1CC/C(C)=C\[C@@H]2OC(=O)[C@H](C)[C@@]2(O)[C@@H](OC(C)=O)[C@H]2[C@@]3(CC[C@H](OC(C)=O)[C@]12C)CO3`, the inhibition at 10 µg/mL with Neutrophil is 15.4%; in test [1], 22.6%.

Take `CC(=O)O[C@H]1CC[C@@]2(CO2)[C@@H]2[C@H](OC(C)=O)[C@]3(O)[C@@H](C)C(=O)O[C@H]3[C@@H]3O[C@]3(C)CC[C@H](OC(C)=O)[C@@]12C` [JUNCEELLOLIDE J]: the values for the inhibition at 10 µg/mL (with Neutrophil; in test [1]) were 5.17% and 7.66%, respectively.

Turning to `CC(=O)O[C@H]1CC[C@]2(CO2)[C@@H]2[C@H](OC(C)=O)[C@]3(O)[C@@H](C)C(=O)O[C@H]3[C@@H](O)[C@](C)(O)CC[C@H](OC(C)=O)[C@@]12C` [JUNCEELLOLIDE L], the results for the inhibition at 10 µg/mL (in the test with Neutrophil; in test [1]) were 5.52% and 5.55%, respectively.

Consider `CC(=O)O[C@H]1CC/C(C)=C\[C@@H]2OC(=O)[C@H](C)[C@@]2(O)[C@@H](OC(C)=O)[C@H]2[C@]3(CC[C@H](OC(C)=O)[C@]12C)CO3` [JUNCEELLOLIDE K], for which the inhibition at 10 µg/mL in the test on Neutrophil came to 15%; in test [1], 13.9%.
